Data published in publication PMC7732128, “Regulation of gene transcription by thyroid hormone receptor β agonists in clinical development for the treatment of non-alcoholic steatohepatitis (NASH)” (PLoS ONE, 2020).
Like-named read-outs stand apart in the source and are kept apart here.

Tests used:
[1] = system: THR (ANGPTL4, CPT1A, DIO1 RNA in Huh-7 cells); assay: Differential gene expression assay in Huh-7 cells; format: cell-based, human; conditions: Homo sapiens
Protocol: Hepatoma-derived Huh-7 cells (JCRB Cell Bank, JCRB0403) were obtained directly from the repository, which performed cell line authentication via isozyme analysis and comprehensively tested for microbial contamination, viral contamination, and cross culture contamination. Cells were routinely cultured in DMEM (Corning, 10-013-CM) supplemented with 10% FBS and 1% P/S at 37°C and 5% CO2 until 80–90% confluency. Cells were then detached with 0.05% trypsin (Corning, 25-052-CV), resuspended in TH-free medium (DMEM supplemented with 10% TH-depleted FBS and 1% P/S), and seeded into collagen-coated, 96-well microplates (Corning, 354407) at 5.0 x 10^4 cells/well. After 24 hrs, the culture medium was replaced with treatment media. Cells were treated for 24 hrs. TH-depletion of the FBS via resin treatment was accomplished as previously described. All treatment media were made by mixing test compounds, serially diluted in DMSO, with TH-free medium (0.1% final DMSO concentration).
After 24 hrs in treatment media, both Huh-7 cells and PHH were processed with the TaqMan Fast Advanced Cells-to-Ct Kit (Invitrogen, A35378), according to the manufacturer’s protocol. Briefly, the treatment media was removed and the cells were washed with 50 μL cold 1X phosphate-buffered saline (Corning, 21-040-CM). Fifty μL lysis buffer containing DNase I was added to each well and the plate was incubated on a rotor at RT for 5 mins. Five μL stop solution was then added to each well and after another 2 mins incubation on a rotor at RT, the cell lysates were used for reverse transcription. The resulting cDNA was diluted 1:2 with nuclease-free, distilled water (Invitrogen, 10977015). Gene expression was measured using TaqMan Fast Advanced Master Mix (Applied Biosystems, 4444964) and the following TaqMan Gene Expression assays (Applied Biosystems, 4331182): 18S (Hs99999901_s1), ACTB (Hs01060665_g1), ANGPTL4 (Hs01101123_g1), CPT1A (Hs00912671_m1), DIO1 (Hs00174944_m1), TFG (Hs02832013_g1), THRA (Hs00268470_m1), and THRB (Hs00230861_m1). ACTB and TFG served as control housekeeping genes for Huh-7 assays and 18S and ACTB for PHH assays. Ten μL reactions were run on the qTOWER³ 84 (Analytik Jena). Relative quantification (RQ) of gene expression was calculated via the 2^−ΔΔCt method and dose-response curves were fitted by non-linear regression with variable slope. Statistical analysis was performed in GraphPad Prism 8.
We aimed to develop an in vitro, cell-based assay that is not only amenable to high throughput screening of compounds, but that can also more reliably recapitulate in vivo processes. Because activated THR may function as a transcription factor, we compared the action of THR agonists in a human hepatocyte-derived cell line and in primary human hepatocytes (PHH) by quantifying transcriptional changes resulting from compound treatment (Fig 2A). Cells were cultured in TH-depleted media for 24 hrs and then treated with compounds for 24 hrs. The RNA levels of THR target genes were then measured via RT-qPCR.

[2] = system: THR (THRSP RNA in PHH); assay: Differential gene expression assay in primary human hepatocytes (PHH); format: cell-based; conditions: Hepatocyte, RT-qPCR, 24 hrs treatment, read-out: PHH EC50 Mean ± SEM
[3] = system: HFD fed rats; assay: High-fat diet fed rat study: serum and hepatic lipid levels; format: in vivo; conditions: 0.5 mg/kg I.P. single dose
Protocol: Animals were purchased from Vital River Laboratory Animal Technology Co. Ltd. and experiments were conducted at Covance Pharmaceutical R&D (Shanghai) Co., Ltd. (China). Animals were group-housed in polycarbonate cages with corncob bedding under controlled temperature (21–25°C), humidity (40–70%), and a 12-hr light/dark cycle. All procedures performed were in compliance with local animal welfare legislation, Covance global policies and procedures, and the Guide for the Care and Use of Laboratory Animals.
Eighty-four male Sprague Dawley rats, approximately 8 to 11 weeks of age, were fed with either a normal diet, ND (D12450K: 10 kcal% fat, no sucrose), or high-fat diet, HFD (D12109C: 40 kcal% fat, 1.25 gm% cholesterol, 0.5 gm% sodium cholate, 12.5 gm% sucrose). After 12 days of diet consumption, baseline serum total cholesterol and low-density lipoprotein cholesterol (LDL-C) levels were measured with the cobas 6000 c501 Chemistry Analyzer (Roche) to confirm hypercholesterolemia in the HFD fed rats. Animals were then randomized into treatment groups.
Twenty-four hrs after dosing, animals were euthanized by CO2 inhalation and serum and plasma were collected along with liver tissue. Serum total cholesterol and LDL-C levels were determined as described above. […] Caudate lobes of the liver were used for analysis of hepatic total cholesterol (Abcam, ab65390) and triglyceride levels (Abcam, ab65336) via enzyme-linked immunosorbent assay. Right lateral lobes were stored in RNAlater (Invitrogen, AM7020) at -70°C until homogenization with the Scientz-48 TissueLyser LT for downstream gene expression analysis. RNA extraction was performed at WuXi AppTec (Hong Kong) Limited (China) with the RNeasy Mini Kit (Qiagen, 74106) and RNA concentration and quality was determined using the Nanodrop 2000 (Thermo Scientific); additional quality control was assessed with agarose gel electrophoresis. One μg total RNA from each sample was then reverse-transcribed using the High Capacity cDNA Reverse Transcription kit (Applied Biosystems, 4368814) and the resulting cDNA was diluted 1:5 with nuclease-free, distilled water. Gene expression was measured using TaqMan Fast Advanced Master Mix and the following TaqMan Gene Expression assays: Actb (Rn00667869_m1), Cpt1a (Rn00580702_m1), Dio1 (Rn00572183_m1), Me1 (Rn00561502_m1), Rplp1 (Rn03467157_gH), and Thrsp (Rn01511034_m1). Actb and Rplp1 served as control housekeeping genes. Ten μL reactions were run on the qTOWER³ 84. Relative quantification (RQ) of gene expression was calculated via the 2^−ΔΔCt method and statistical analysis was performed in GraphPad Prism 8.0 and Microsoft Excel.

[4] = Huh-7, CPT1A RNA, RT-qPCR, 24 hrs treatment, read-out: Huh-7 EC50 Mean ± SEM
[5] = Huh-7, 24 hrs, n = 2 (Fig 2C), read-out: mean EC50, ANGPTL4
[6] = Huh-7, 24 hrs, n = 2 (Fig 2C), read-out: mean EC50, CPT1A
[7] = Huh-7, 24 hrs, n = 2 (Fig 2C), read-out: mean EC50, DIO1

| SMILES | EC50 [1, 4] [nM] | EC50 [1, 5] [nM] | EC50 [1, 6] [nM] | EC50 [1, 7] [nM] | EC50 [2] [nM] | decrease in serum total cholesterol (pre-dose vs 24 hrs post-dose) [3] [%] | decrease in serum triglyceride levels (pre-dose vs 24 hrs post-dose) [3] [%] |
| --- | --- | --- | --- | --- | --- | --- | --- |
| N[C@@H](Cc1cc(I)c(Oc2ccc(O)c(I)c2)c(I)c1)C(=O)O [T3, triiodothyronine] | […] | […] | […] | […] | […] | 68.2 | 71.2 |
